Reference: patent publication US12698141B2, “Methods for extracting and encapsulating phenolics from food waste, related compositions, and related articles” (BOARD OF TRUSTEES OF MICHIGAN STATE UNIVERSITY, priority 2019, dated 2026)

Test: Release of quercetin in PBS solution from electrospun PLLA scaffold (spectrophotometer)
Assay type: physicochemical
Details: all three samples (quercetin:PLLA 1:16, 1:8, 1:4)
Protocol: Materials and Methods: For fabrication of the scaffolds, an electrospinning apparatus consisting of a high voltage power supply (PCM series, Spellman, NY, USA) was used for charging the polymer solution, a grounded aluminum roto-translating drum (4 mm outer diameter and 13 cm in length) was used for collecting fibers, and a syringe pump (KDS-100, KD Scientific, Holliston, MA, USA) was used for controlling feed flow rate. Rotation was at 750 rpm and translation velocity at 1000 mm/min. The fluid was pushed out from the syringe with a flow rate of 1.1 mL/h, throughout a 0.25 mm diameter needle with a potential difference of 17 kV. All the samples were obtained using about 1.5 mL of initial solution. The polymer solution was prepared with Poly (L-lactide), PLLA, in 1,1,1,3,3,3-Hexafluoro-2-propanol (HFP) 20% (w/v). Three different volumes of quercetin dihydrate in ethanol (5.5 mg/mL) were added to obtain three different quercetin/polymer ratio: 1:4, 1:8, 1:16. […] The mechanical properties of the scaffolds were measured using uniaxial tensile test. The release of quercetin in PBS solution from the scaffold was measured using spectrophotometer at different times up to 75 days. Growth inhibition activity of quercetin against Escherichia coli and Saccharomyces cerevisiae was also assessed.

## O=c1c(O)c(-c2ccc(O)c(O)c2)oc2cc(O)cc(O)c12 [quercetin]
After 75 days of incubation at 4° C.
  amount of quercetin released: 50%
After 75 days of incubation at 20° C.
  amount of quercetin released: 50%
